From patent US9309242B2, “Substituted pyrido[2,3-b]pyrazines as FGFR kinase inhibitors” (priority 2011, dated 2016)
Read-outs that look alike come from different tables or passages of the source.

Key:
FGFR1 (h) = FGFR1 (h) (Homo sapiens, UniProt P11362); assay: FGFR1 (enzymatic assay), TR-FRET; type: biochemical; conditions: read-out: FGFR 1 pIC50 (converted)
FGFR2 (h) = FGFR2 (h) (Homo sapiens, UniProt P21802); assay: FGFR2 (enzymatic assay), TR-FRET; type: biochemical; conditions: enzymatic assay, read-out: FGFR 2 pIC50 (converted)
Sequence of FGFR2 (h) (P21802 22-821): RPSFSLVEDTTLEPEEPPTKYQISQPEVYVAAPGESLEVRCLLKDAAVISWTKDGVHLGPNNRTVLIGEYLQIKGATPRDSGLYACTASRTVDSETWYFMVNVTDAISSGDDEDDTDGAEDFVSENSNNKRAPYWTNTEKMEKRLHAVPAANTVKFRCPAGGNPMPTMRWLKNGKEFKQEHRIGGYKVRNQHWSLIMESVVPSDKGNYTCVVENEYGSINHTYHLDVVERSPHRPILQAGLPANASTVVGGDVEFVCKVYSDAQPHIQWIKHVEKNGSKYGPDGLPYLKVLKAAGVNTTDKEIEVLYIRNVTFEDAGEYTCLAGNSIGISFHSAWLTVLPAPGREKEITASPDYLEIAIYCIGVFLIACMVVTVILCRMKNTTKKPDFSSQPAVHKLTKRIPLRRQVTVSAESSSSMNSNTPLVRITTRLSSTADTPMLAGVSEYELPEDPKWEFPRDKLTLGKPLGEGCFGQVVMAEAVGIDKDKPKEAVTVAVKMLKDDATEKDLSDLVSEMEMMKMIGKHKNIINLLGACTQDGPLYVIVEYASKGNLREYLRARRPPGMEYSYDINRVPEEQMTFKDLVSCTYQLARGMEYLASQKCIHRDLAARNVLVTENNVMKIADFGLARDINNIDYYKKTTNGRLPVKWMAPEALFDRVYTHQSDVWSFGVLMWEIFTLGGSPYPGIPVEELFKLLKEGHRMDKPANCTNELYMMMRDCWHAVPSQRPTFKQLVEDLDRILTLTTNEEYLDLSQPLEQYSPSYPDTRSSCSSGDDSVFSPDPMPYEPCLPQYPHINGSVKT
Method in brief: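 Human FGFR2 (150 ng/ml) was incubated with 500 nM Btn-Flt3 substrate and 0.4 μM ATP in 50 mM HEPES pH 7.5, 6 mM MnCl2, 1 mM DTT, 0.1 mM Na3VO4, 0.01% Triton-X-100. Compound was present at 1% DMSO final.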

FGFR3 (h) = FGFR3 (h) (Homo sapiens, UniProt P22607); assay: FGFR3 (enzymatic assay), TR-FRET; type: biochemical; conditions: read-out: FGFR 3 pIC50 (converted)
Sequence of FGFR3 (h) (P22607 23-806): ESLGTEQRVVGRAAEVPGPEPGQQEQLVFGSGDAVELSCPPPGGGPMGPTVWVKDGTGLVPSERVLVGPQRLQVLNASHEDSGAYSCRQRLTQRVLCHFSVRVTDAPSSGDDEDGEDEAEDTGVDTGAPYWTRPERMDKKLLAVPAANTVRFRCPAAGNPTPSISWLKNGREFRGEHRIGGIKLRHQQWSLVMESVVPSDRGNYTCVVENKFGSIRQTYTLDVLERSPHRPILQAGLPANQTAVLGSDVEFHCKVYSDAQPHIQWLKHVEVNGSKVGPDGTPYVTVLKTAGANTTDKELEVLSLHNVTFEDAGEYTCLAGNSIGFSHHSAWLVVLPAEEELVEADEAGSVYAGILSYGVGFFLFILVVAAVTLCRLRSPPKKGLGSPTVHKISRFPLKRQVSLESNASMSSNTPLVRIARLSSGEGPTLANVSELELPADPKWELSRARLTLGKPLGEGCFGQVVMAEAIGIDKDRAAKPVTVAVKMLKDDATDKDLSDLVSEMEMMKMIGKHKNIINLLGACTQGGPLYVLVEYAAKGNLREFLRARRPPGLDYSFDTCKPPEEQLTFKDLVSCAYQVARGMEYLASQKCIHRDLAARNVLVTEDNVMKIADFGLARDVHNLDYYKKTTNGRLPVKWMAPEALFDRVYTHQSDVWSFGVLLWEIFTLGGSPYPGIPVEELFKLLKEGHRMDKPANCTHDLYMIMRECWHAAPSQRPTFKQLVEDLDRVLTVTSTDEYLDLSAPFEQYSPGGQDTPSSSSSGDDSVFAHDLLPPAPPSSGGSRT
Source text: Time-Resolved Fluorescence Resonance Energy Transfer (TR-FRET) signal (ex340 nm.

FGFR4 (h) = FGFR4 (h) (Homo sapiens, UniProt P22455); assay: FGFR4 (enzymatic assay), TR-FRET; type: biochemical; conditions: FGFR 4 pIC50, enzymatic assay
Sequence of FGFR4 (h) (P22455 22-802): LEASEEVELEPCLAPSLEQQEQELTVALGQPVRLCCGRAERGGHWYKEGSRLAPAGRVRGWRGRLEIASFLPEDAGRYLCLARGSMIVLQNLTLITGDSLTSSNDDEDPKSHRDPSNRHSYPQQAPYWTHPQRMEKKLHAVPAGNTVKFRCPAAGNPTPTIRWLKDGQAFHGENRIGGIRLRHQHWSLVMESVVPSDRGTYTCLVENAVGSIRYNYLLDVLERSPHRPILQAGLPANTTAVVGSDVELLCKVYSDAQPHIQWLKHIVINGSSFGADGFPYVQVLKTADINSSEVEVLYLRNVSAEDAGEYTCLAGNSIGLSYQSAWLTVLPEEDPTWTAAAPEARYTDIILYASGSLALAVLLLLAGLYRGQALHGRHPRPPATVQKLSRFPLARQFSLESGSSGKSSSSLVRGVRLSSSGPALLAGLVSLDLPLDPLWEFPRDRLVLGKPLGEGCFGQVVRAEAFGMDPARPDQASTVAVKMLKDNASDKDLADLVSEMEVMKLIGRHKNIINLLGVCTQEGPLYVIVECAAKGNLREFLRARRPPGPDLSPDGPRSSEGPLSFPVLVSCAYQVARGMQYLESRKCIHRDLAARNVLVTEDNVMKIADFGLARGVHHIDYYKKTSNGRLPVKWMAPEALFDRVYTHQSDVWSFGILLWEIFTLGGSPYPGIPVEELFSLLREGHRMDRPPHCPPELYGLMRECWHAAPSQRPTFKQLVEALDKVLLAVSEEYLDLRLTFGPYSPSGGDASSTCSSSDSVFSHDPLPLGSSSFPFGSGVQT

KDR (h) = KDR (h) (Homo sapiens, UniProt P35968); assay: KDR (VEGFR2) (enzymatic assay), TR-FRET; type: biochemical; conditions: read-out: VEGFR 2 (KDR) pIC50 (converted)
Sequence of KDR (h) (P35968 20-1356): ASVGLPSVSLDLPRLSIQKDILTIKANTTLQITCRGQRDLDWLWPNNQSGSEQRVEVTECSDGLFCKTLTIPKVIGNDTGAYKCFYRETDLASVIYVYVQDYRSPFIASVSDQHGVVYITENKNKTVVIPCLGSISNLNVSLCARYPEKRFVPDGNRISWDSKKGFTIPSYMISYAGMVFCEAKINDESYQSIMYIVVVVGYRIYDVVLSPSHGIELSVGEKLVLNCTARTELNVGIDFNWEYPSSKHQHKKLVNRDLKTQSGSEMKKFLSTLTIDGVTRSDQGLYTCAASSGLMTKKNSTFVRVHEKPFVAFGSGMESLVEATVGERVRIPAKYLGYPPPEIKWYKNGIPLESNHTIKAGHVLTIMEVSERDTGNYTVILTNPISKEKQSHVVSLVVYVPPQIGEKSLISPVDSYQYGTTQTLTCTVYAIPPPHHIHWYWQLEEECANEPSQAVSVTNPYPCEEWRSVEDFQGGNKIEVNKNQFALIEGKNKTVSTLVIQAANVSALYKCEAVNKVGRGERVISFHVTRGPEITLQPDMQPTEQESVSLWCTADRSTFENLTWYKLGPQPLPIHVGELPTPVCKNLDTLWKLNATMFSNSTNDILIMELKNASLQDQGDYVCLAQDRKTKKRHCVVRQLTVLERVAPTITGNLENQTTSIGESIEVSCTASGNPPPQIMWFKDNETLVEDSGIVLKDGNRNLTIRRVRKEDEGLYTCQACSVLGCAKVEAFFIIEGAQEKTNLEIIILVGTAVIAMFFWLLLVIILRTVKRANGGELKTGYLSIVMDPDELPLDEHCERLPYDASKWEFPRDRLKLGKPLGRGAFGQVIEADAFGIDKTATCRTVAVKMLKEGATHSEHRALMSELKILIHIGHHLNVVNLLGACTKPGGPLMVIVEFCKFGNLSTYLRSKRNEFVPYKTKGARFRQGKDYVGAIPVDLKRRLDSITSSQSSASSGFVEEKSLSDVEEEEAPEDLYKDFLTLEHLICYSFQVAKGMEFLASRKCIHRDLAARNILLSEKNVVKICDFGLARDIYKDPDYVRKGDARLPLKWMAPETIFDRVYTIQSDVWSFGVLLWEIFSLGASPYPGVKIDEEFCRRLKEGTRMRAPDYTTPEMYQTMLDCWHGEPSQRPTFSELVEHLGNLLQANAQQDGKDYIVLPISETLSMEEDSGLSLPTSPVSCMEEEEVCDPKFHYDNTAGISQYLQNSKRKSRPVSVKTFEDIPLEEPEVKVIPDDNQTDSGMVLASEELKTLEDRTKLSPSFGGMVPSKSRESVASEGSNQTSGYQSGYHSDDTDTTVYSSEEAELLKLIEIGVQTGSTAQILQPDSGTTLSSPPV
Method in brief: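 Read-out is TR-FRET (ex 340 nm, em 620 and 655 nm) in RFU, after an EDTA stop carrying Eu-labelled anti-phosphotyrosine and SA-XL-665 (60 min, RT). The preceding kinase reaction ran 120 min at RT with 150 ng/ml enzyme, 500 nM Btn-Flt3 and 3 μM ATP.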

[1] = target: T1, Ba/F3-FGFR1-transfected cells (Homo sapiens, UniProt P11362); assay: Ba/F3-FGFR1 (minus IL3) cellular proliferation assay, Alamar Blue; type: cell-based
T1 construct: BAF3-FGFR1 (MIN IL3) pIC50; other: minus IL3
Method in brief: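 Viability was measured by resazurin reduction (fluorescence, 540 nm excitation/590 nm emission) after a 4 h Alamar Blue incubation. This followed 24 h of compound treatment at 37 °C, 5% CO2, of 20000 FGFR1-transfected Ba/F3 cells per well in 10% FBS RPMI-1640.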

[2] = test system: Ba/F3-FGFR1-transfected cells; assay: Ba/F3-FGFR1 (plus IL3) cellular proliferation assay, counterscreen with 10 ng/ml murine IL3; type: cell-based; conditions: plus IL3 (10 ng/ml murine IL3, counterscreen); read-out: BAF3-FGFR1 (PLUS IL3) pIC50 (converted)
Method in brief: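 Ba/F3-FGFR1 cells (20000/well) in RPMI-1640 with 10% FBS exposed to compound for 24 h at 37° C., 5% CO2, then Alamar Blue (resazurin) added for 4 h; fluorescence read at ex 540/em 590 nm. Counterscreen run identically with 10 ng/ml murine IL3.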

[3] = target: T2, Ba/F3-FGFR3-transfected cells (Homo sapiens, UniProt P22607); assay: Ba/F3-FGFR3 (minus IL3) cellular proliferation assay, Alamar Blue; type: cell-based
T2 construct: BAF3-FGFR3 (MIN IL3) pIC50; other: minus IL3
T2 sequence (P22607 whole entry, change not shown): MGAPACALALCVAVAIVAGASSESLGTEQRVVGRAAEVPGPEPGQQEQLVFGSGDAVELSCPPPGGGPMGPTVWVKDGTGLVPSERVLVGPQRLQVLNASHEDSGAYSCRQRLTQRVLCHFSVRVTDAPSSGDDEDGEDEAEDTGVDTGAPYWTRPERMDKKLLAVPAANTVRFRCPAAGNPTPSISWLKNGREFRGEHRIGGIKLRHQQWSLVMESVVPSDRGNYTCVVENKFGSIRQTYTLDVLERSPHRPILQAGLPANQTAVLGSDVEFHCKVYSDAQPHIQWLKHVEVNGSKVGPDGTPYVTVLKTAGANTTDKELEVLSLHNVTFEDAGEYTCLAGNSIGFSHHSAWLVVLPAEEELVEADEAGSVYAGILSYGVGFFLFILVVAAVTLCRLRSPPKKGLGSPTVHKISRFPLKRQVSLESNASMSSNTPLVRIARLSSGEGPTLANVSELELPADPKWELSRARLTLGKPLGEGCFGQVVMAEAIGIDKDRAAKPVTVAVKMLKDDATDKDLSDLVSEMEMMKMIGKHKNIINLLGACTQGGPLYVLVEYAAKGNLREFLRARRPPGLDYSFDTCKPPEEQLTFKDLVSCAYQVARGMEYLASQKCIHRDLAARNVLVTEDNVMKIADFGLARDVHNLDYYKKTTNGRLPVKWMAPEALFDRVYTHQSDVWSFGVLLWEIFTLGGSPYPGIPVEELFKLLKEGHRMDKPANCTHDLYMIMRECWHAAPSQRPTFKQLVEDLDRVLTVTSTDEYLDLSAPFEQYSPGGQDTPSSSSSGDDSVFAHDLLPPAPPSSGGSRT
Method in brief: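 Viability readout was resazurin reduction (ex 540/em 590 nm) after 4 h, following 24 h compound treatment at 37 °C of FGFR3-transfected Ba/F3 cells (20000/well, RPMI-1640/10% FBS). IL3-dependent counterscreen used identical conditions plus 10 ng/ml murine IL3.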

[4] = target: T3, Ba/F3-KDR-transfected cells (Homo sapiens, UniProt P35968); assay: Ba/F3-KDR (minus IL3) cellular proliferation assay, Alamar Blue; type: cell-based
T3 construct: BAF3-KDR (MIN IL3) pIC50; other: minus IL3
Method in brief: (§1)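 20000 cells/well, RPMI-1640 + 10% FBS + 2 mM L-Gln; compound 24 h, 37° C/5% CO2; Alamar Blue 4 h; RFU ex540/em590.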

[5] = test system: Ba/F3-KDR-transfected cells; assay: Ba/F3-KDR (plus IL3) cellular proliferation assay, counterscreen with 10 ng/ml murine IL3; type: cell-based; conditions: plus IL3 (10 ng/ml murine IL3, counterscreen); read-out: BAF3-KDR (PLUS IL3) pIC50 (converted)
Method in brief: as §1

[6] = average values if tested multiple times

| SMILES | IC50 (FGFR1 (h)) [nM] | IC50 (FGFR2 (h)) [nM] | IC50 (FGFR3 (h)) [nM] | IC50 (FGFR4 (h)) [nM] | IC50 (KDR (h)) [nM] | BAF3-FGFR1 (MIN IL3) pIC50 [1] | IC50 [2] [nM] | BAF3-FGFR3 (MIN IL3) pIC50 [3] | BAF3-KDR (MIN IL3) pIC50 [4] | IC50 [5] [nM] | IC50 (FGFR1 (h); [6]) [nM] | IC50 (FGFR2 (h); [6]) [nM] | IC50 (FGFR3 (h); [6]) [nM] | IC50 (FGFR4 (h); [6]) [nM] | IC50 (KDR (h); [6]) [nM] |
| --- | --- | --- | --- | --- | --- | --- | --- | --- | --- | --- | --- | --- | --- | --- | --- |
| COc1cc(OC)c(F)c(N(Cc2nccn2C)c2ccc3ncc(-c4cnn(C)c4)nc3n2)c1 [Compound 131] | 2.14 | 2.63 | 2.95 | 7.41 | 19.1 | 7.62 | > 10000 | 7.25 | 5.50 | > 10000 | – | – | – | – | – |
| COc1cc(OC)c(F)c(N(Cc2nncn2C)c2ccc3ncc(-c4cnn(C)c4)nc3n2)c1 [Compound 132] | 5.62 | 3.02 | 4.27 | 17.4 | 42.7 | 6.62 | > 10000 | ~6.64 | 5.38 | > 10000 | – | – | – | – | – |
| COc1cc(OC)cc(N(CCCN2CCCC2=O)c2ccc3ncc(-c4cnn(C)c4)nc3n2)c1 [Compound 134] | 8.71 | 3.09 | 3.8 | 11.7 | 35.5 | 6.43 | > 10000 | ~6.64 | 5.20 | > 10000 | – | – | – | – | – |
| COc1cc(OC)c(F)c(N(Cc2nc(C)c[nH]2)c2ccc3ncc(-c4cnn(C)c4)nc3n2)c1 [Compound 135] | 1.17 | 1.78 | 1.48 | 1.26 | 8.71 | 8.82 | > 10000 | 8.25 | 6.64 | > 10000 | – | – | – | – | – |
| COc1cc(OC)c(F)c(N(Cc2c[nH]c(C)n2)c2ccc3ncc(-c4cnn(C)c4)nc3n2)c1 [Compound 137] | 1.48 | 2.04 | 1.58 | 1.7 | 11.2 | ~8.11 | > 10000 | 7.64 | 6.19 | > 10000 | – | – | – | – | – |
| COc1cc(OC)c(F)c(N(CC2CCCCO2)c2ccc3ncc(-c4cnn(C)c4)nc3n2)c1 (stereo not drawn) [Compound 139] | 3.16 | 3.31 | 2.75 | 4.17 | 28.8 | 7.40 | > 10000 | 7.38 | 5.33 | > 10000 | – | – | – | – | – |
| COc1cc(OC)c(F)c(N(Cc2nn[nH]n2)c2ccc3ncc(-c4cnn(C)c4)nc3n2)c1 [Compound 140] | 11.7 | 4.47 | 5.62 | 11.7 | 56.2 | <5 | > 10000 | <5 | <5 | > 10000 | – | – | – | – | – |
| COc1cc(OC)c(F)c(N(CC2CCC(=O)N2)c2ccc3ncc(-c4cnn(C)c4)nc3n2)c1F (stereo not drawn) [Compound 192] | – | – | – | – | – | 7.73 | > 10000 | 7.78 | 6.11 | > 10000 | 1.15 | 2.51 | 1.55 | 2.09 | 13.8 |
| COc1cc(OC)c(F)c(/N=c2\ccc3ncc(-c4cnn(C)c4)nc3n2CC2CCC(=O)N2)c1F (stereo not drawn) [Compound 193] | – | – | – | – | – | 8.01 | > 10000 | ~8.06 | 6.28 | > 10000 | 0.55 | 0.794 | 0.417 | 0.955 | 7.24 |
